Measurements reported in ChEMBL document CHEMBL3758163, “Extended structure-activity study of thienopyrimidine-based EGFR inhibitors with evaluation of drug-like properties” (Eur J Med Chem, 2016).

Key:
[1] = target: T1, Aurora kinase A (Homo sapiens) (UniProt O14965); test: Inhibition of AURKA (unknown origin) at 500 nM
T1 sequence (whole entry): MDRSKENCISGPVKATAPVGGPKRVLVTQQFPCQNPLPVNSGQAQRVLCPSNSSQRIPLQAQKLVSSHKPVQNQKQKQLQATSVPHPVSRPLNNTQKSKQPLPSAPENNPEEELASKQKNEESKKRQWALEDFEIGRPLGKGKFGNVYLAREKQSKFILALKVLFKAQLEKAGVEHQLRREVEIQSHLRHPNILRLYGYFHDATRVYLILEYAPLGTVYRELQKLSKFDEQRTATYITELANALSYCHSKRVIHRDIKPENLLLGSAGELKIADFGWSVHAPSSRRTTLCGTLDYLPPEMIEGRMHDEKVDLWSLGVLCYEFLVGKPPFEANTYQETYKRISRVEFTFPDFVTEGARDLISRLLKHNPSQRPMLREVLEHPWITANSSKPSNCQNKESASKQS

[2] = target: Receptor tyrosine-protein kinase erbB-2 (Homo sapiens) (UniProt P04626); test: Inhibition of ERBB2 (unknown origin) at 500 nM
Sequence of Receptor tyrosine-protein kinase erbB-2 (Homo sapiens) (P04626 whole entry): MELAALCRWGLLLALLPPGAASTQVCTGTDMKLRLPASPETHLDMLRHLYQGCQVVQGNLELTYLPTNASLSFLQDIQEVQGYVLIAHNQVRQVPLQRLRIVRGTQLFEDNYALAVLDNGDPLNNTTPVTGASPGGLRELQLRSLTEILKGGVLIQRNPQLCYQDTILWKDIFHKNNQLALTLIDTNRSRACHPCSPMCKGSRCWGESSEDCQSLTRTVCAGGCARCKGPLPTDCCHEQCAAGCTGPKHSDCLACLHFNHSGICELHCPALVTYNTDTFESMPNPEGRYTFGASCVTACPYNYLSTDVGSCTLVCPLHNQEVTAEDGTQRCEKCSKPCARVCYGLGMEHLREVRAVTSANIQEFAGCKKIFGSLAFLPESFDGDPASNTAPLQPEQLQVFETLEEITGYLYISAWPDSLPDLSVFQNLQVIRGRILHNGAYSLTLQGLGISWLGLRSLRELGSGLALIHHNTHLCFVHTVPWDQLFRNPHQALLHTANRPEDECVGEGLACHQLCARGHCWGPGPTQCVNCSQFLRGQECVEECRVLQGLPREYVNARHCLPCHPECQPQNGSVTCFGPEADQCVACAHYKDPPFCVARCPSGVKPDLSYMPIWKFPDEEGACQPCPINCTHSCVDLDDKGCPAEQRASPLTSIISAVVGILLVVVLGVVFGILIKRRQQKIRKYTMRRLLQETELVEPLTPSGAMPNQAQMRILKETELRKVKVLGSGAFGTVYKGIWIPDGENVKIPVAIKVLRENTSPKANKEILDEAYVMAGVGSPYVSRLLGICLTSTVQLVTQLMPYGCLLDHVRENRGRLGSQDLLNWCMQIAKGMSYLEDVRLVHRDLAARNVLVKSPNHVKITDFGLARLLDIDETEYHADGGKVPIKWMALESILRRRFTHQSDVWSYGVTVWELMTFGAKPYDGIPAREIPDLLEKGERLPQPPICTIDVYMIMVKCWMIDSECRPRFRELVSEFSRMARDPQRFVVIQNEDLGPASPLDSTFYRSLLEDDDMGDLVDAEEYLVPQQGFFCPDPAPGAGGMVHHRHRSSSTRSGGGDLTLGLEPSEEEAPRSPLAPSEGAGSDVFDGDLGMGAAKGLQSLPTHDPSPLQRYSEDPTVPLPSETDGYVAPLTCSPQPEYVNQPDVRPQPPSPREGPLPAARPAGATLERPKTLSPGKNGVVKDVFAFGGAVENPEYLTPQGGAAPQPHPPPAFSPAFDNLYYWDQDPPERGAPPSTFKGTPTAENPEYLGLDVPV

[3] = target: Tyrosine-protein kinase Fer (Homo sapiens) (UniProt P16591); test: Inhibition of FER (unknown origin) at 500 nM
Sequence of Tyrosine-protein kinase Fer (Homo sapiens) (P16591 whole entry, looked up): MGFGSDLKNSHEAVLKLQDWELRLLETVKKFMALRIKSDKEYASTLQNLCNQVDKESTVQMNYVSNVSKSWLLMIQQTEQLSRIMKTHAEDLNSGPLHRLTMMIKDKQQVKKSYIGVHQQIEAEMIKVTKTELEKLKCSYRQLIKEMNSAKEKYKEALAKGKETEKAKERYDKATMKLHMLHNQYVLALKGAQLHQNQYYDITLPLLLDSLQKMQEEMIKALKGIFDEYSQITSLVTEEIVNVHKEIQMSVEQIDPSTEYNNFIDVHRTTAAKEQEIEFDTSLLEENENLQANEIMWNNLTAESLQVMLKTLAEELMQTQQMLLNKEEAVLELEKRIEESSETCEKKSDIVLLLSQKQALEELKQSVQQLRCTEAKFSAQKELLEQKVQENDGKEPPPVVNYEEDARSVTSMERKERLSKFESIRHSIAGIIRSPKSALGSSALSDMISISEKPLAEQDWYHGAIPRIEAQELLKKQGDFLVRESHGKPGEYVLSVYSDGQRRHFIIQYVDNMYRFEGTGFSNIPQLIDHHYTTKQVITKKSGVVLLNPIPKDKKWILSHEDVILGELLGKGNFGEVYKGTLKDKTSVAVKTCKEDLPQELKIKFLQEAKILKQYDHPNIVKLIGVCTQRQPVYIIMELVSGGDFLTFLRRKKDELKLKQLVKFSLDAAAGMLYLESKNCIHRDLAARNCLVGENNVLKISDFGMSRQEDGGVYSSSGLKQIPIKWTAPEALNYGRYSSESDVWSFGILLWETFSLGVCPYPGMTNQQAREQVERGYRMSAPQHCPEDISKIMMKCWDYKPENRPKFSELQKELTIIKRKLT

[4] = target: Tyrosine-protein kinase JAK2 (Homo sapiens) (UniProt O60674); test: Inhibition of JAK2 (unknown origin) at 500 nM
[5] = target: Mast/stem cell growth factor receptor Kit (Homo sapiens) (UniProt P10721); test: Inhibition of KIT (unknown origin) at 500 nM
Sequence of Mast/stem cell growth factor receptor Kit (Homo sapiens) (P10721 whole entry): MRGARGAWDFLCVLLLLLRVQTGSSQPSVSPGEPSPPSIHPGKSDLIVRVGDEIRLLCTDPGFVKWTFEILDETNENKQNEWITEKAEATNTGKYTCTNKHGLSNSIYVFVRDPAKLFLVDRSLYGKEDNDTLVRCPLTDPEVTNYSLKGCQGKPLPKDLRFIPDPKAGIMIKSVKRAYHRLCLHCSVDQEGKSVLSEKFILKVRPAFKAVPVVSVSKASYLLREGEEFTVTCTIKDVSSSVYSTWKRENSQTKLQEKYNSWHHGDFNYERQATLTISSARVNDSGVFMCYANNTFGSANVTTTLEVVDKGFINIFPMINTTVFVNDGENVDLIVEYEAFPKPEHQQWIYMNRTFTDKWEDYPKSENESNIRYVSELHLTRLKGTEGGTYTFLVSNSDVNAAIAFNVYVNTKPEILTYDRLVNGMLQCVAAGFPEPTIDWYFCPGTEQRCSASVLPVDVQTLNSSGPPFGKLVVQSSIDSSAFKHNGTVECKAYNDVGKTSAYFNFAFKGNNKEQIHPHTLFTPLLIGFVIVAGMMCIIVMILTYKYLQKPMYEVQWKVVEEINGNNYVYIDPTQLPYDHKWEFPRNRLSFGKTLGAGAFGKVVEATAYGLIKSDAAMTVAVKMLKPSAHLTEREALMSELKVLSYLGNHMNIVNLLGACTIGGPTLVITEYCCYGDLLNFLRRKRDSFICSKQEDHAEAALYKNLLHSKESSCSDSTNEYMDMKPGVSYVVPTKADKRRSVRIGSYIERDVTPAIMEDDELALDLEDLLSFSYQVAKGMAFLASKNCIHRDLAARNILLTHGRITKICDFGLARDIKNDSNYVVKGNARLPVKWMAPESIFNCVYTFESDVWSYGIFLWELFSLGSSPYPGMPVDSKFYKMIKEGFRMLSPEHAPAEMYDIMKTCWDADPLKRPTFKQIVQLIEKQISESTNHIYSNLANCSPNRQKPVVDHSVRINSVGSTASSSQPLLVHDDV

[6] = target: Tyrosine-protein kinase Lyn (Homo sapiens) (UniProt P07948); test: Inhibition of LYN B (unknown origin) at 500 nM
[7] = target: Mitogen-activated protein kinase 14 (Homo sapiens) (UniProt Q16539); test: Inhibition of MAPK14 (unknown origin) at 500 nM
Sequence of Mitogen-activated protein kinase 14 (Homo sapiens) (Q16539 whole entry): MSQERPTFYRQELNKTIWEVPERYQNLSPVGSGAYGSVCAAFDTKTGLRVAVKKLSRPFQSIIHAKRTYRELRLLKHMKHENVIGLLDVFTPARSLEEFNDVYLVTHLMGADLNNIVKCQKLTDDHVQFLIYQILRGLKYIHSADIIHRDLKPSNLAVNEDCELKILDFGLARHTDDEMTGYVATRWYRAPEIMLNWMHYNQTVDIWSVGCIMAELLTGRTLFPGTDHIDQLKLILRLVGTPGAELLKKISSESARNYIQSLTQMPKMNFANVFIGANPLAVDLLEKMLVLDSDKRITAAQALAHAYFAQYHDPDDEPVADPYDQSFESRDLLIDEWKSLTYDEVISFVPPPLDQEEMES

[8] = target: MAP kinase-activated protein kinase 2 (Homo sapiens) (UniProt P49137); test: Inhibition of MAPKAPK2 (unknown origin) at 500 nM
Sequence of MAP kinase-activated protein kinase 2 (Homo sapiens) (P49137 whole entry, looked up): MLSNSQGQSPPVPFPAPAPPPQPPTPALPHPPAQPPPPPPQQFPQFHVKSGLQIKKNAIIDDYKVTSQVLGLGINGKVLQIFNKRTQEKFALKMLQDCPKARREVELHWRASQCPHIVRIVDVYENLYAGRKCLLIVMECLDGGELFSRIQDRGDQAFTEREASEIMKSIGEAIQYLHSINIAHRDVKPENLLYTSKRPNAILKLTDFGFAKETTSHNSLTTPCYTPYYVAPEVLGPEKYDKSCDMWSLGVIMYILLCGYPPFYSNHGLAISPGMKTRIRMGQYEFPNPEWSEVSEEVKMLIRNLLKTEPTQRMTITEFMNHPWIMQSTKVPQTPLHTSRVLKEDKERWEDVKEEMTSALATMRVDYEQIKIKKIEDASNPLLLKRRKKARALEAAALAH

[9] = target: cAMP-dependent protein kinase catalytic subunit alpha (Homo sapiens) (UniProt P17612); test: Inhibition of PRKACA (unknown origin) at 500 nM
[10] = target: Protein kinase C theta type (Homo sapiens) (UniProt Q04759); test: Inhibition of PRKCQ (unknown origin) at 500 nM
Sequence of Protein kinase C theta type (Homo sapiens) (Q04759 whole entry, looked up): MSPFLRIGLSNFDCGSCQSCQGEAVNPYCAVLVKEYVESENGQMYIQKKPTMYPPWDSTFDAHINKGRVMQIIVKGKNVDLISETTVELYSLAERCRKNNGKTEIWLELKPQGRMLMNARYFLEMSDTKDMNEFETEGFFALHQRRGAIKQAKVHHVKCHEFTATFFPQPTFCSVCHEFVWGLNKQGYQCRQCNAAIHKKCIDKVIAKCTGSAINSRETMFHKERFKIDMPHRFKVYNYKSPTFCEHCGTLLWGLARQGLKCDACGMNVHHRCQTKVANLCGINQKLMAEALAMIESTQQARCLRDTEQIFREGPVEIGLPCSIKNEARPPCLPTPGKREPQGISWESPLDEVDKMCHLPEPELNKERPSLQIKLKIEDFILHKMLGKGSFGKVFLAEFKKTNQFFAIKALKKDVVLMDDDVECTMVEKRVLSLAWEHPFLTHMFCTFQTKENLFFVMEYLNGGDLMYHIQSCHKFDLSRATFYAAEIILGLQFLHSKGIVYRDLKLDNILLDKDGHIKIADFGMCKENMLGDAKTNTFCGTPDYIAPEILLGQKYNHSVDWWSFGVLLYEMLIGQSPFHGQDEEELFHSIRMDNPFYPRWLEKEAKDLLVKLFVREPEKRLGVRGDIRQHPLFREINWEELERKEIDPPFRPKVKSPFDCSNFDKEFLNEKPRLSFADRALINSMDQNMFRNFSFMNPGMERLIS

[11] = target: Proto-oncogene tyrosine-protein kinase Src (Homo sapiens) (UniProt P12931); test: Inhibition of SRC (unknown origin) at 500 nM
Sequence of Proto-oncogene tyrosine-protein kinase Src (Homo sapiens) (P12931 2-536 limits assumed): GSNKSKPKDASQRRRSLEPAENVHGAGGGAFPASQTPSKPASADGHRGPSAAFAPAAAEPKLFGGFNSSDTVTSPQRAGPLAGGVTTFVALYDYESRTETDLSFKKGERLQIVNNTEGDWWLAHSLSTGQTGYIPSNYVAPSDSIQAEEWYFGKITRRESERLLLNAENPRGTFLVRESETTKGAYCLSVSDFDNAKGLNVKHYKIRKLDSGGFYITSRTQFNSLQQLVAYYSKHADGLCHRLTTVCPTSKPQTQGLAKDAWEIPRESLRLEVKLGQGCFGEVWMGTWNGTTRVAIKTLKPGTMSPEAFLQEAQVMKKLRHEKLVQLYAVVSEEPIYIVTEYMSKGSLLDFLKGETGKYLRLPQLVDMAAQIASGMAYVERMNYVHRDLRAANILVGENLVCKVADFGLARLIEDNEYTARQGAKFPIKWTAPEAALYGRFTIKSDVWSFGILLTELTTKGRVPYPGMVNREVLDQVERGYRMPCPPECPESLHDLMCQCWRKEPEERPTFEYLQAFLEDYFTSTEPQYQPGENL

[12] = target: T2, Testis-specific serine/threonine-protein kinase 2 (Homo sapiens) (UniProt Q96PF2); test: Inhibition of STK22B (unknown origin) at 500 nM
T2 sequence (whole entry): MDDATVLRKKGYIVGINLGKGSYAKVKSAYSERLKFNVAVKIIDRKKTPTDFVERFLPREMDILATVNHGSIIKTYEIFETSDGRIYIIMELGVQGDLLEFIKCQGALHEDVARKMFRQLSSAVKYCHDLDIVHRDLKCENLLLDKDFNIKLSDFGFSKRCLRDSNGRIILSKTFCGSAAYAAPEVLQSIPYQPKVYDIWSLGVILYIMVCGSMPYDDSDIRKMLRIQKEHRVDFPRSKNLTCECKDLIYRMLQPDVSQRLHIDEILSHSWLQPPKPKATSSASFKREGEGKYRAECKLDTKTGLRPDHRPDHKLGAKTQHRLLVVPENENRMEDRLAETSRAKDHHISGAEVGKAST

[13] = Half-life in human liver microsomes at 3 uM by LC-MS/MS analysis; type: ADME
[14] = Antiproliferative activity against human PC9 cells after 96 hrs by Sytox green marker based fluorescence analysis; type: functional, cell-based; conditions: PC-9, 96 h
[15] = Antiproliferative activity against human Calu3 cells after 72 hrs by CellTiter blue assay; type: functional, cell-based; conditions: Calu-3, 72 h
[16] = Antiproliferative activity against human BT474 cells after 72 hrs by CellTiter blue assay; type: functional, cell-based; conditions: BT-474, 72 h
[17] = Antiproliferative activity against human Hs578T cells after 72 hrs by CellTiter-Glo assay; type: functional, cell-based; conditions: Hs-578T
[18] = Antiproliferative activity against human SKBR3 cells after 72 hrs by CellTiter blue assay; type: functional, cell-based; conditions: SK-BR-3, 72 h
[19] = Antiproliferative activity against human OVCAR3 cells after 72 hrs by CellTiter-Glo assay; type: functional, cell-based; conditions: OVCAR-3, 72 h
[20] = system: SW480; test: Antiproliferative activity against human SW480 cells after 72 hrs by CellTiter-Glo assay; type: functional, cell-based; conditions: SW480, 72 h
[21] = system: H9; test: Antiproliferative activity against human H9 cells after 72 hrs by CellTiter-Glo assay; type: functional, cell-based; conditions: H9, 72 h
[22] = Antiproliferative activity against human U937 cells after 72 hrs by CellTiter blue assay; type: functional, cell-based; conditions: U-937, 72 h
[23] = system: FaDu; test: Antiproliferative activity against human FADU cells; type: functional, cell-based
[24] = system: MRC5; test: Antiproliferative activity against human MRC5 cells after 72 hrs by CellTiter-Glo assay; type: cell-based; conditions: MRC5, 72 h
[25] = Toxicity in zebrafish embryo assessed as survival for 3.5 days; type: organism-based, Danio rerio; conditions: in vivo
[26] = Toxicity in zebrafish embryo assessed as morphological defects for 3.5 days; type: organism-based, Danio rerio
[27] = species: Danio rerio; test: Toxicity in zebrafish embryo assessed as effect on morphology upto 25 uM; type: organism-based; conditions: in vivo
[28] = species: Danio rerio; test: Toxicity in zebrafish embryo assessed as kinked tails at 50 and 100 uM; type: organism-based; conditions: in vivo

## COc1cc(CO)ccc1-c1cc2c(N[C@H](CO)c3ccccc3)ncnc2s1
[1]
  inhibition: 5%
[2]
  inhibition: 50%
[3]
  inhibition: 8%
[4]
  inhibition: 9%
[5]
  inhibition: 1%
[6]
  inhibition: 56%
[7]
  inhibition: 13%
[8]
  inhibition: 8%
[9]
  inhibition: 1%
[10]
  inhibition: 1%
[11]
  inhibition: 9%
[12]
  inhibition: 8%
[13]
  half-life at 3 µM: 2.57 h
[14]
  IC50: 0.09 µM
[15]
  IC50: 4.2 µM
[16]
  IC50: 11 µM
[17]
  IC50: 43 µM
[18]
  IC50: 17 µM
[19]
  IC50: 9.7 µM
[20]
  IC50: 19 µM
[21]
  IC50: 12 µM
[22]
  IC50: 18 µM
[23]
  IC50: 43 µM
[24]
  IC50: 37 µM
[25]
  LC50 at 84 h: > 100 µM
[26]
  EC50 at 3.5 days: 49 µM
[27]
  Activity: Non-toxic
[28]
  Activity: Toxic
